Results published in PubChem BioAssay (NCI).
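These data come from cells grown in 96-well plates and exposed to compound for 48 hours at five concentrations. GI50 = concentration required for 50% inhibition of growth. TGI marks complete inhibition of growth.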

Tests used:
Experiment in all cases: NCI-60 cell line screen, 48 h
[1] = system: DU-145 prostate
[2] = system: SK-MEL-2 melanoma
[3] = system: SK-OV-3 ovarian
[4] = system: SR leukemia
[5] = system: SN12C renal
[6] = system: OVCAR-8 ovarian
[7] = system: PC-3 prostate
[8] = system: MDA-MB-435
[9] = system: DMS 273 small cell lung
[10] = system: DLD-1 colon
[11] = system: LXFL 529 NSCLC
[12] = system: SNB-78 CNS

| SMILES | GI50 [1] [µM] | TGI [1] [µM] | GI50 [2] [µM] | TGI [2] [µM] | GI50 [3] [µM] | TGI [3] [µM] | GI50 [4] [µM] | TGI [4] [µM] | GI50 [5] [µM] | TGI [5] [µM] | GI50 [6] [µM] | TGI [6] [µM] | GI50 [7] [µM] | TGI [7] [µM] | GI50 [8] [µM] | TGI [8] [µM] | TGI [9] [µM] | TGI [10] [µM] | TGI [11] [µM] | TGI [12] [µM] |
| --- | --- | --- | --- | --- | --- | --- | --- | --- | --- | --- | --- | --- | --- | --- | --- | --- | --- | --- | --- | --- |
| Cc1cccc(NC(=O)c2sc3nc4c(cc3c2N)C(=O)CCC4)c1 | 0.302 | > 30 | 0.266 | > 54.2 | 0.317 | > 100 | 0.445 | > 100 | 0.74 | > 63.8 | 1.23 | > 91.9 | 0.397 | > 48.1 | 0.0302 | 0.126 | – | – | – | – |
| O=C1[C@@H]2C(c3c(Cl)cccc3Cl)=NO[C@@H]2C(=O)N1c1ccc(Cc2ccc(N3C(=O)[C@H]4C(c5c(Cl)cccc5Cl)=NO[C@H]4C3=O)cc2)cc1 | – | – | – | > 100 | – | > 100 | – | – | – | > 100 | – | > 100 | – | – | – | – | > 100 | > 100 | > 100 | > 100 |
| c1ccc(-c2[nH]ncc2-c2ccnc(-c3ccc(OCCn4ccnc4)cc3)c2)nc1 | > 25 | > 25 | > 25 | > 25 | > 25 | > 25 | > 25 | > 25 | > 25 | > 25 | 14.4 | > 25 | 13.2 | > 25 | 24.5 | > 25 | – | – | – | – |
| Cn1nccc1Nc1nccc(-c2ccn([C@H](CO)c3ccc(Cl)c(F)c3)c(=O)c2)n1 | 27.7 | > 100 | 0.275 | 27.2 | 47.6 | > 100 | 25.1 | > 100 | 10 | > 100 | 6.56 | > 100 | 43.6 | > 100 | 3.16 | > 100 | – | – | – | – |
| CCc1cccc(C)c1NC(=O)CCc1nc(=S)[nH][nH]1 | – | – | – | > 100 | – | > 100 | – | > 100 | – | > 100 | – | > 100 | – | – | – | – | – | > 100 | > 100 | > 100 |
| O=C(NC1C(=O)NNC1c1cccc([N+](=O)[O-])c1)c1ccccc1 (centres undefined) | – | – | – | > 100 | – | – | – | – | – | > 100 | – | > 100 | – | – | – | – | – | > 100 | > 100 | > 100 |
| CCCCCCCC(=O)OCC(COC(=O)C(C)(C)C)OC(=O)Cc1ccccc1 (centres undefined) | – | – | – | – | – | > 100 | – | – | – | > 100 | – | > 100 | – | – | – | – | > 100 | > 100 | > 100 | – |
| CNCc1cccc2c1OCCOCCOCCN(C)S(=O)(=O)c1ccc(cc1)-c1cnc(N)c(n1)C(=O)N2 | 1.27 | 15.2 | 1.42 | 4.27 | 0.389 | 12.8 | 0.248 | 2.97 | 1.48 | 3.41 | 1.88 | 4.46 | 1.94 | 8.09 | 1.28 | 2.69 | – | – | – | – |
| O=[N+]([O-])c1ccccc1C1SCc2nc3ccccc3n21 (centres undefined) | – | – | – | > 100 | – | > 100 | – | > 100 | – | > 100 | – | > 100 | – | – | – | – | > 100 | > 100 | > 100 | – |
| Cc1c(C(=N)C(C#N)C#N)c(=N)oc2c1ccc1ccccc12 | 25.3 | > 100 | 18 | 56.4 | 21.3 | 63.3 | 7.64 | > 100 | 22 | > 100 | 23.9 | > 100 | 29.5 | > 100 | 22.2 | > 100 | – | – | – | – |
| O=C1Oc2ccccc2C(=O)/C1=C1/C=C(c2ccccc2)SS1 | – | > 100 | – | > 100 | – | > 100 | – | 61.3 | – | > 100 | – | > 100 | – | > 100 | – | > 100 | – | – | – | – |
| Cn1c([N+](=O)[O-])cnc1C=C1C(=O)c2ccccc2C1=O | 6.45 | 19.6 | 2.46 | 6.24 | 6.32 | 29.4 | 1.87 | 10.5 | 3.83 | 16.1 | 2.18 | 6.54 | 8.89 | 28.5 | 2.67 | 11.7 | – | – | – | – |
| O=C(Nc1ccc(N=C=S)cc1Cl)c1cc(Br)cc(Br)c1O | – | 39.4 | – | > 100 | – | > 100 | – | 62 | – | 24.1 | – | 46.6 | – | 54.5 | – | 71.4 | – | – | – | – |
| O=C1C=C[C@H](O)[C@@]2(CO)O[C@@H]12 | 14.3 | 27.4 | 14.6 | 33.5 | 28.4 | > 96.1 | 4.64 | > 100 | 8.53 | 22.4 | 13.2 | 31.9 | 16.3 | 39.5 | 9.92 | > 51.5 | – | – | – | – |
| CCN=c1sc2c(n1NC(=O)c1cc3ccc1CCc1ccc(cc1)CC3)C(=O)c1ccccc1C2=O | 0.632 | 1.16 | 0.726 | 1.56 | 4.49 | 8.95 | 0.815 | 9.91 | 0.52 | 1.06 | 0.594 | 1.35 | 0.643 | 3.05 | 0.601 | 1.09 | – | – | – | – |
| CCNc1nc(O)c(/C=C2\C=Nc3ncccc32)s1 | 3.25 | 47.4 | 3.04 | 8.93 | 2.86 | 9.12 | 1.6 | > 100 | 3.58 | 37.5 | 3.27 | > 100 | 4.04 | > 100 | 3.49 | 14.9 | – | – | – | – |
| Cc1nc2ccccc2nc1CC(=O)C(=O)Nc1ccc(Cl)cc1Cl | – | – | – | > 100 | – | > 100 | – | – | – | > 100 | – | > 100 | – | – | – | – | > 100 | > 100 | > 100 | > 100 |
